According to patent US20100166726A1, “COMPOSITIONS FOR IMPROVING CELLULAR UPTAKE OF A CHEMOTHERAPEUTIC AGENT IN A CELL EXHIBITING MUCIN DEREGULATION” (NORTHEASTERN UNIVERSITY, priority 2007, published 2010):

Key:
HPAF-II cells [1] = test: 5-FU cytotoxicity with or without benzyl-α-GalNAc pre-exposure, sulforhodamine B assay; type: cell-based, human
Procedure: The effects of increasing benzyl-α-GalNAc concentrations on cytotoxicity of 5-FU (108 μmol/ml) against HPAF-II cells was first tested. […] The growth inhibitory effect of 5-FU after 24 hr of exposure was determined using sulforhodamine B (Sigma-Aldrich, St. Louis, Mo.) assay the percent of viable cells was calculated as follows: […]

HPAF-II cells [2] = test: Neuraminidase toxicity and effect on 5-FU cytotoxicity, sulforhodamine B assay; type: cell-based, human
Procedure: The enzyme neuraminidase, which cleaves terminal sialic acid residues, was used in these studies (Varki et al., J. Biol. Chem., 258:12465-12471 [1983]). […] The removal of sialic acid residues from cell surface was confirmed by labeling cells with 5 μl/well FITC conjugated MAA lectin for 30 mins. The effects of neuraminidase on CD227 antibody association was determined by labeling cells with 5 μl/well CD227 antibody for 4 hr. […] The effects of neuraminidase on 5-FU cytotoxicity was determined by exposing cells to 0.05 U/ml neuraminidase for 1 hr followed by treatment with 5-FU for 24 hr. Percent cell viability was determined using sulforhodamine B assay.

U-87 MG cells [3] = test: 5-FU cytotoxicity with or without benzyl-α-GalNAc pre-exposure, sulforhodamine B assay; type: cell-based, human
Capan-1 tumors = test: Anti-tumoral activity in Capan-1 pancreatic tumor model (tumor volume, histochemical staining, neoplastic cell density); type: in vivo, SCID mice
Procedure: All animal work was performed in the animal facility at Northeastern University, Boston, Mass. in accordance with the institutional guidelines. Female SCID (severe combined immunodeficient mice), 6 to 8 weeks old purchased from Massachusetts General Hospital, Boston, Mass. were used for our study since they have been used successfully for developing human xenografts of pancreatic tumors. To establish the tumors, 2.5×10^6 Capan-I cells in 0.1 ml of cell culture medium were injected into the subcutaneous dorsa of all mice. Mice were weighed daily using a digital weighing balance (AccuSeries®, Fisher Scientific, Arvada, Colo.) and tumor volumes were also measured every day using an electronic digital caliper (Control Company, Friendswood, Tex.). Tumor volumes were calculated using the formula a^2×b×0.52, where “a” is the longer diameter and “b” is the shorter diameter. Once the tumor volumes were approximately 50 mm^3-70 mm^3 the experimental groups received intratumoral injections of benzyl-α-GalNAc (0.1 ml injection; 10 mg/ml) whereas […] at intervals of 48 hr. When the tumor volumes were approximately 100 mm^3 5-FU was administered via the intravenous route. Animals in treatment groups received two injections (0.1 ml) of 5-FU at interval of 4 days whereas control mice received saline (0.1 ml). The total dose of 5-FU administered was 125 mg/kg. At the end of the experiment animals were sacrificed, tumor tissue was surgically removed and fixed in 10% formalin at 4° C. for histochemical staining.
For histochemical staining, paraffin-embedded tissue sections (5 μm) were stained with hematoxylin and eosin (H&E) to evaluate and compare the extent of tissue viability. The tumor sections were scanned and qualitative images captured using brightfield microscopy (Olympus BX61WI, NY). The number of tumor cells in each section was quantified using bioquant imaging software and expressed as percent of total tumor area. To quantify the total tumor area we first traced the outline of the entire tumor section in each field of view (FOV). The pixels within the traced area were then selected and the pixel count was determined by the software. A total of five FOV were analyzed to determine the total pixel count of the tumor area. Microscope stage encoders were used to ensure that no tumor area was counted more than once. Similarly the total pixel count of the neoplastic cells featured in blue in each FOV was determined. The total percent of neoplastic cell density was calculated as follows: […]
For these studies the pancreatic cell line, Capan-1 was used to used to establish a pancreatic tumor model. Capan-1 tumors were established in subcutaneous dorsa of female SCID mice (see, Example 7). […] 5-FU therapy began when the tumor size was approximately 100 mm^3.

Capan-1 cells [4] = test: 5-FU cytotoxicity with or without benzyl-α-GalNAc pre-exposure, sulforhodamine B assay; type: cell-based, human
Capan-1 cells [5] = test: Intracellular uptake of 5-FU by immunofluorescence labeling
Procedure: (§1) Capan-1 and U-87 MG cells were exposed to the maximum non-toxic concentration of benzyl-α-GalNAc for 48 hr followed by 1 hr and 4 hr exposure to 5-FU (50 μmol/ml). The intracellular levels of the drug were determined using a primary antibody against 5-FU followed by FITC-conjugated secondary antibody. Specifically, sterile cover slips were placed in 24-well plates (Corning, N.Y.). Cells were seeded at 2×10^4 per ml in the same 24-well plates. Following a 24 hr incubation period at 37° C. cells was exposed to the maximum non-toxic concentration of benzyl-α-GalNAc solution prepared in cell culture media, the control cells were incubated in growth media without the O-glycosylation inhibitor. Following an additional 48 hr of incubation, each row was washed with 1×PBS and treated with 5-FU prepared in cell growth medium. The intracellular uptake of 5-FU following 1 hr and 4 hr of cell exposure to drug was determined by immunofluorescence labeling. Briefly, the medium containing 5-FU was aspirated and cells were washed twice with 1×PBS. The cells were then fixed with cold methanol for 10 min at −20° C. followed by rinsing with cold acetone. The cells were next washed twice with 1×PBS followed by 30 min rehydration in 1×PBS. For immunolabeling, cells were exposed to 200 μl (1:1000 dilution; stock concentration: 1 mg/ml) of primary antibody against 5-FU (Lampire Biological Laboratories, Pipersville, Pa.) for 1 hr at room temperature. The unassociated primary antibody was removed by washing three times with 1×PBS and cells were then incubated at room temperature with 200 μl (1:1000 dilution; stock concentration: 1 mg/ml) of fluorescein isothiocyanate (FITC)-conjugated goat anti-mouse IgG secondary antibody (Lampire Biological Laboratories, Pipersville, Pa.). Following 1 hr incubation with the secondary antibody, cells were washed twice with 1×PBS to remove any unassociated secondary antibody and the fluorescence intensity was measured using a fluorescence microplate reader (Bio-Tek® Instruments Inc., VT) at excitation wavelength of 485 nm and emission wavelength of 528 nm. The intracellular uptake of 5-FU was observed under a fluorescence microscope. The coverslip from each well was mounted onto a glass microslide (Corning, N.Y.) with SlowFade® Gold antifade reagent (Invitrogen, Carlsbad, Calif.). The images were captured using a combination of fluorescence and DIC microscopic applications at 20× magnification (Olympus BX61WI-Melville, N.Y.).

U-87 MG cells [6] = test: as above; type: cell-based, human
Procedure: as §1

Capan-1 cells [7] = test: Cytotoxic activity of chemotherapeutic agents with or without benzyl-α-GalNAc pretreatment, sulforhodamine B assay; type: cell-based, human; settings: benzyl-α-GalNAc 48 hr, then drug 24 hr
Procedure: Human pancreatic cancer cell morphology was visualized using light microscopy. Six hydrophilic chemotherapeutic agents namely cisplatin, gemcitabine, carboplatin, methotrexate, doxorubicin, vinblastine and six lipophilic agents namely lomustine, busulfan, camptothecin, etoposide, teniposide and paclitaxel with molecular weights ranging from approximately 200 to 900 were used. Two different concentrations of each drug type were evaluated in the presence and absence of heavily O-glycosylated chains with Benzyl-α-GalNAc as O-glycosylation inhibitor. Cell viability was determined using Sulforhodamine B assay. The percent change in cell viability was used to assess the overall benefit of reducing mucin in Capan-1 cells when different cytotoxic drugs are employed.
The growth inhibitory effect of the chemotherapeutic agent after 24 hr of exposure was determined by sulforhodamine B assay and percent of viable cells was calculated as follows: […]

[8] = 5-FU exposure 1 h, Benzyl-α-GalNAc + (48 hr pre-treatment)
[9] = 5-FU exposure 1 h, Benzyl-α-GalNAc −
[10] = 5-FU exposure 4 h, Benzyl-α-GalNAc + (48 hr pre-treatment)
[11] = 5-FU exposure 4 h, Benzyl-α-GalNAc −

Compound: O=c1[nH]cc(F)c(=O)[nH]1 [5-FU, 5-fluorouracil]
- percent viability (HPAF-II cells [1]; 5-FU (108 μmol/ml) alone, 24 hr): 77.1±2.5%
- percent viability (HPAF-II cells [1]; pretreated with benzyl-α-GalNAc 0.8 mg/ml for 48 hr, then 5-FU (108 μmol/ml) 24 hr): 63.4±8.6%
- percent viability vs 5-FU alone (HPAF-II cells [2]): not significantly altered
- percent viability (HPAF-II cells [2]; human, 24 hr): 49%±4.6
- percent cell viability (U-87 MG cells [3]; 5-FU alone): 37%
- percent cell viability (U-87 MG cells [3]; benzyl-α-GalNAc (0.8 mg/ml) prior to 5-FU): 37%
- histochemical staining of tumor sections, neoplastic cells (Capan-1 tumors; H&E stained sections): fewer tumor cells
- tumor volume compared to control tumors (saline group) (Capan-1 tumors; benzyl-α-GalNAc intratumoral days 4, 6, 8, 10, 5-FU intravenous, total 125 mg/kg): significantly lower
- Percent Tumor Area (neoplastic cell density as percent of total tumor area) (Capan-1 tumors; bioquant imaging software, tumor sections at end of experiment): 21.0 ± 1.4%
- percent viability (Capan-1 cells [4]; 5-FU (80 μmol/ml) alone): 65.9±2%
- percent viability (Capan-1 cells [4]; benzyl-α-GalNAc (0.4 mg/ml) followed by 5-FU (80 μmol/ml)): 53.6±3.6%
- Intracellular uptake of 5-Fluorouracil, fluorescence intensity (Capan-1 cells [5]; [8]): 7271.4 arbitrary units
- Intracellular uptake of 5-Fluorouracil, fluorescence intensity (Capan-1 cells [5]; [9]): 1696.9 arbitrary units
- Intracellular uptake of 5-Fluorouracil, fluorescence intensity (Capan-1 cells [5]; [10]): 3933.3 arbitrary units
- Intracellular uptake of 5-Fluorouracil, fluorescence intensity (Capan-1 cells [5]; [11]): 4253.0 arbitrary units
- fluorescence staining of intracellular 5-FU (imaging), pre-treated with benzyl-α-GalNAc vs 5-FU alone (Capan-1 cells [5]; 1 hr of exposure to 5-FU (50 μmol/ml)): higher fluorescence staining
- fluorescence staining of intracellular 5-FU (imaging), pre-treated with benzyl-α-GalNAc vs controls (Capan-1 cells [5]; 4 hr of exposure to 5-FU (50 μmol/ml)): no difference
- Intracellular uptake of 5-Fluorouracil, fluorescence intensity (U-87 MG cells [6]; [8]): 2346.9 arbitrary units
- Intracellular uptake of 5-Fluorouracil, fluorescence intensity (U-87 MG cells [6]; [9]): 3757.0 arbitrary units
- Intracellular uptake of 5-Fluorouracil, fluorescence intensity (U-87 MG cells [6]; [10]): 2989.4 arbitrary units
- Intracellular uptake of 5-Fluorouracil, fluorescence intensity (U-87 MG cells [6]; [11]): 3704.9 arbitrary units
- staining patterns of 5-FU (imaging), pre-treated with benzyl-α-GalNAc (U-87 MG cells [6]; 1 hr or 4 hr of exposure to 5-FU (50 μmol/ml)): did not alter

Compound: CC[C@@]1(O)C(=O)OCc2c1cc1n(c2=O)Cc2cc3ccccc3nc2-1 [Camptothecin]
- Percent increase in chemotherapeutic activity (chemotherapeutic benefit) when pretreated with benzyl-α-GalNAc (Capan-1 cells [7]): 34%

Compound: N.N.O=C([O-])C1(C(=O)[O-])CCC1.[Pt+2] [Carboplatin]
- Percent increase in chemotherapeutic activity (chemotherapeutic benefit) when pretreated with benzyl-α-GalNAc (Capan-1 cells [7]): 33%
